Assay results reported in patent US10307357B2, “Prebiotic oral care compositions containing an alkyl glycoside” (COLGATE-PALMOLIVE COMPANY, priority 2013, dated 2019).

What was measured:
Format in all cases: cell-based
[1] = test system: Aggregatibacter actinomycetemcomitans; test: Mixed culture (dual-species) competition, selective plating; conditions: C: with S. salivarius; after only 24 h
Procedure: (§1) The pathogenic species Prevotella intermedia, Aggregatibacter actinomyctemcomitans, Porphyromonas gingivalis, Fusobacterium nucleatum, Streptococcus mutans and beneficial species Streptococcus salivarius are used as model organisms for experiments. Bacterial strains are grown on blood agar plates (Oxoid, Basingstoke, UK) supplemented with 5 μg/ml hemin (Sigma Chemical Co, St. Louis, Mo.), 1 μg/ml menadion and 5% sterile horse blood (Biotrading, Keerbergen, Belgium). Bacteria are collected from blood agar plates and transferred to 10 ml brain heart infusion broth (BHI) (Difco Laboratories, Detroit, Mich.). P. intermedia, P. gingivalis, and F. nucleatum were incubated overnight at 37° C. in an anaerobic atmosphere, A. actinomycetemcomitans, S. mutans and S. salivarius are incubated overnight at 37° C. in a 5% CO2 environment. Bacterial concentration is adjusted by measuring optical density at 600 nm.
(§2) In vitro effect of β-methyl-D-galactoside on pathogens: Bacterial solutions of periodontopathogens, P. intermedia, F. nucleatum, A. actinomycetemcomitans and P. gingivalis, cariogenic species S. mutans and beneficial species, S. salivarius, are prepared of which the optical density was adjusted to 1×10^7 CFU/ml. Experiments are carried out as a dual-species model in 24 well plates containing one pathogen (1 ml) and S. salivarius (1 ml). Different conditions are tested: the two microorganisms with (C) or without (D) β-methyl-D-galactoside (200 μl, dissolved in AD (aqua distillata)), only the periodontopathogen with (B) or without (A) β-methyl-D-galactoside (200 μl). β-methyl-D-galactoside is used at a final concentration of 1 mg/ml. When S. salivarius is not added to the mixture, BHI is added to obtain an equal volume. When β-methyl-D-galactoside is not added to the mixture, AD was added to obtain an equal volume. Plates are incubated at 37° C. in an anaerobic atmosphere. Selective microbial plating is carried out at 0 h, 24 h, and 48 h. Selective agar plates are prepared for each bacterium. P. intermedia and P. gingivalis are cultured on CDC anaerobe 5% sheep blood agar (Becton Dickinson, Franklin Lakes, N.J.), A. actinomycetemcomitans on Tryptic soy serum bacitracin vancomycin agar (TSBV) (Oxoid, Basingstoke, UK), F. nucleatum on crystal violet erythromycin (CVE) agar (Oxoid, Basingstoke, UK), S. mutans on tryptone yeast extract cystine sucrose bacitracin (TYCSB) agar (Oxoid, Basingstoke, UK) and S. salivarius on Phenylethyl alcohol agar (Becton Dickinson, Franklin Lakes, N.J.).
(§3) Statistical analysis: For statistical analysis of the data, the data are log10 transformed to obtain a normal distribution. A linear mixed model is built to assess differences between treatments. A correction for multiple hypothesis testing is carried out.

Fusobacterium nucleatum = test: as above; conditions: C: with S. salivarius; after 48 h
Procedure: as §1, §2, §3

Porphyromonas gingivalis = test: as above; conditions: C: with S. salivarius; after only 24 h
Procedure: as §1, §2, §3

Prevotella intermedia = test: as above; conditions: C: with S. salivarius; after 48 h
Procedure: as §1, §2, §3

Streptococcus mutans = test: as above; conditions: β-methyl-D-galactoside and S. salivarius present; p=0.9999
Procedure: as §1, §2, §3

periodontopathogens = test: Mixed culture competition, conclusion over periodontopathogens; conditions: S. salivarius and β-methyl-D-galactoside added (C) compared with A, B, after 24 h and 48 hours, p<0.001
Procedure: as §1
In vitro effect of β-methyl-D-galactoside on pathogens: Bacterial solutions of periodontopathogens, P. intermedia, F. nucleatum, A. actinomycetemcomitans and P. gingivalis, cariogenic species S. mutans and beneficial species, S. salivarius, are prepared of which the optical density was adjusted to 1×10^7 CFU/ml. Experiments are carried out as a dual-species model in 24 well plates containing one pathogen (1 ml) and S. salivarius (1 ml). […]

CO[C@@H]1O[C@H](CO)[C@H](O)[C@H](O)[C@H]1O [β-methyl-D-galactoside]
concentration of pathogen, in words [1]: decline in concentration to zero
pathogen numbers, in words (Fusobacterium nucleatum): significantly lower but remained slightly above zero
concentration of pathogen, in words (Porphyromonas gingivalis): decline in concentration to zero
pathogen numbers, in words (Prevotella intermedia): significantly lower but remained slightly above zero
reduction of pathogen, in words (Streptococcus mutans): no reduction is observed
number of periodontopathogens, in words (periodontopathogens): significant decrease
